For the assay, the target named is T1, human LPA1 (Homo sapiens, UniProt Q92633).
T1 construct: the full-length cDNA for human LPA1 was obtained by PCR of the reverse transcription reaction; expressed in transfected cells
T1 sequence (Q92633 whole entry): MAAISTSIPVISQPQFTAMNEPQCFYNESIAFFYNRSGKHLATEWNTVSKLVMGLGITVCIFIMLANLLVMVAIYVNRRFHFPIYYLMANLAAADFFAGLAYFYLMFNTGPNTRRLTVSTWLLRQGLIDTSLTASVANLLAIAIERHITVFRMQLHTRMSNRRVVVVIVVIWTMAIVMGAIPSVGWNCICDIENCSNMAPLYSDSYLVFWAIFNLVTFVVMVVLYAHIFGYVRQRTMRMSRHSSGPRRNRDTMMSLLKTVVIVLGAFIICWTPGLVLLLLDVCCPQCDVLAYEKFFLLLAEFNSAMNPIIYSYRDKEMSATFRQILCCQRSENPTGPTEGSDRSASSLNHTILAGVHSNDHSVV
The assay can be described thus: LPA1 calcium flux assay. To be noted: CHO cells expressing human LPA1, stimulated with 10 nM LPA; read-out: HLPA1 Ca Flux IC50. Format: cell-based. The protocol: A 1.1 kb cDNA encoding the human LPA1 receptor was cloned from human lung. Human lung RNA (Clontech Laboratories, Inc. USA) was reverse transcribed using the RETROscript kit (Ambion, Inc.) and the full-length cDNA for human LPA1 was obtained by PCR of the reverse transcription reaction. The nucleotide sequence of the cloned human LPA1 was determined by sequencing and confirmed to be identical to the published human LPA1 sequence (An et al. Biochenm. Biophys. Res. Commun. 231:619 (1997). The cDNA was cloned into the pCDNA5/FRT expression plasmid and transfected in CHO cells using lipofectamine 2000 (Invitrogen Corp., USA). Clones stably expressing human LPA1 were selected using hygromycin and identified as cells that show Ca-influx in response to LPA.
Human LPA1 or LPA3 expressing CHO cells are seeded at 20,000-45,000 cells per well in a 96-well poly-D-lysine coated plate one or two days before the assay. Prior to the assay, the cells are washed once with PBS and then cultured in serum-free media overnight. On the day of the assay, a calcium indicator dye (Calcium 4, Molecular Devices) in assay buffer (HBSS with Ca^2+ and Mg^2+ and containing 20 mM Hepes and 0.3% fatty-acid free human serum albumin) is added to each well and incubation continued for 1 hour at 37° C. 10 μl of test compounds in 2.5% DMSO are added to the cells and incubation continued at room temperature for 30 minutes. Cells are the stimulated by the addition of 10 nM LPA and intracellular Ca^2+ measured using the Flexstation 3 (Molecular Devices). IC50s are determined using Graphpad prism analysis of drug titration curves.
Regarding `Cc1noc(-c2ccc(-c3ccc(CC(=O)O)cc3)cc2)c1C(O)COCc1cccc(C(F)(F)F)c1` (centres unmarked) [Compound 1-241, (4′-{4-[1-Hydroxy-2-(3-trifluoromethyl-benzyloxy)-ethyl]-3-methyl-isoxazol-5-yl}-biphenyl-4-yl)-acetic acid], the half-maximal inhibitory concentration (IC50) was 1000 to 50000 nM.
For the compound `CCOc1cccc(Nc2c(C)noc2-c2ccc(-c3ccc(C4(C(=O)O)CC4)cc3)cc2)n1` [Compound 1-294, 1-{4′-[4-(6-Ethoxy-pyridin-2-ylamino)-3-methyl-isoxazol-5-yl]-biphenyl-4-yl}-cyclopropanecarboxylic acid], the 50% inhibitory concentration (IC50) is less than 300 nM.
With `Cc1noc(-c2ccc(-c3ccc(CC(=O)O)cc3)cc2)c1CC(F)(F)CCc1ccccc1` [Compound 1-170, {4′-[4-(2,2-Difluoro-4-phenyl-butyl)-3-methyl-isoxazol-5-yl]-biphenyl-4-yl}-acetic acid], the IC50 was less than 300 nM.
As for `Cc1noc(-c2ccc(-c3ccc(C4(C(=O)O)CC4)cc3)cc2)c1CCOCc1ccccn1` [Compound 1-75, 1-(4′-{3-Methyl-4-[2-(pyridin-2-ylmethoxy)-ethyl]-isoxazol-5-yl}-biphenyl-4-yl)-cyclopropanecarboxylic acid], the figure is 1000 to 50000 nM.
Turning to `Cc1noc(-c2ccc(-c3ccc(C4(C(=O)O)CC4)cc3)cc2)c1CCOCC1CC1` [Compound 1-35, 1-{4′-[4-(2-Cyclopropylmethoxy-ethyl)-3-methyl-isoxazol-5-yl]-biphenyl-4-yl}-cyclopropanecarboxylic acid], the IC50 is less than 300 nM.
For the compound `Cc1noc(-c2ccc(-c3cccc(C(=O)O)c3)cc2)c1NC(=O)NCc1ccccc1` [Compound 1-2, 4′-[4-(3-Benzyl-ureido)-3-methyl-isoxazol-5-yl]-biphenyl-3-carboxylic acid], the 50% inhibitory concentration (IC50) was in the range of 1000 to 50000 nM.
As for `Cc1noc(-c2ccc(-c3cccc(C(=O)O)c3)cc2)c1CNC(=O)OCc1ccccc1` [Compound 1-305, 4′-[4-(Benzyloxycarbonylamino-methyl)-3-methyl-isoxazol-5-yl]-biphenyl-3-carboxylic acid], the figure is 1000 to 50000 nM; as for `Cc1noc(-c2ccc(-c3ccc(C4(C(=O)O)CC4)cc3)cc2)c1CNCC1CC1` [Compound 1-27, 1-(4′-{4-[(Cyclopropylmethyl-amino)-methyl]-3-methyl-isoxazol-5-yl}-biphenyl-4-yl)-cyclopropanecarboxylic acid], 1000 to 50000 nM.
As for `Cc1noc(-c2ccc(-c3ccc([C@H]4C[C@H]4C(=O)O)cc3)cc2)c1/C=C/CCc1ccccc1` (relative stereo) [Compound 1-129, (cis)-2-{4′-[3-Methyl-4-(4-phenyl-but-1-enyl)-isoxazol-5-yl]-biphenyl-4-yl}-cyclopropanecarboxylic acid], the 50% inhibitory concentration (IC50) is less than 300 nM.
In the case of `Cc1noc(-c2ccc(-c3ccc(C4(C(=O)O)CC4)cc3)cc2)c1CN(C)C(=O)Cc1ccccc1` [Compound 1-71, 1-(4′-{3-Methyl-4-[(methyl-phenylacetyl-amino)-methyl]-isoxazol-5-yl}-biphenyl-4-yl)-cyclopropanecarboxylic acid], the 50% inhibitory concentration (IC50) is 300 to 1000 nM.
As for `Cc1noc(-c2ccc(-c3ccc(C4(C(=O)O)CC4)cc3)cc2)c1CCOCc1ccncc1` [Compound 1-77, 1-(4′-{3-Methyl-4-[2-(pyridin-4-ylmethoxy)-ethyl]-isoxazol-5-yl}-biphenyl-4-yl)-cyclopropanecarboxylic acid], the figure is greater than 50000 nM; as for `Cc1noc(-c2ccc(-c3ccc(CCC(=O)O)cc3)cc2)c1CSCCc1ccccc1` [Compound 1-191, 3-[4′-(3-Methyl-4-phenethylsulfanylmethyl-isoxazol-5-yl)-biphenyl-4-yl]-propionic acid], less than 300 nM; as for `Cc1noc(-c2ccc(-c3ccc(C4(C(=O)O)CC4)cc3)cc2)c1CNC(=O)Cc1ccccc1` [Compound 1-58, 1-{4′-[3-Methyl-4-(phenylacetylamino-methyl)-isoxazol-5-yl]-biphenyl-4-yl}-cyclopropanecarboxylic acid], less than 300 nM.
Regarding `Cc1noc(-c2ccc(-c3ccc(C4(C(=O)O)CC4)cc3)cc2)c1NCCC(C)(C)C` [Compound 1-151, 1-{4′-[4-(3,3-Dimethyl-butylamino)-3-methyl-isoxazol-5-yl]-biphenyl-4-yl}-cyclopropanecarboxylic acid], the IC50 lay in the range of 300 to 1000 nM.
With `Cc1ccc2nc(NCc3c(C)noc3-c3ccc(-c4ccc(C5(C(=O)O)CC5)cc4)cc3)sc2c1` [Compound 1-195, 1-(4′-{3-Methyl-4-[(6-methyl-benzothiazol-2-ylamino)-methyl]-isoxazol-5-yl}-biphenyl-4-yl)-cyclopropanecarboxylic acid] the figure was 1000 to 50000 nM.
As to `Cc1noc(-c2ccc(-c3ccc(C4(C(=O)O)CC4)cc3)cc2)c1NC1Cc2ccccc2C1` [Compound 1-271, 1-{4′-[4-(Indan-2-ylamino)-3-methyl-isoxazol-5-yl]-biphenyl-4-yl}-cyclopropanecarboxylic acid], the IC50 lay in the range of 300 to 1000 nM.
For `Cc1noc(-c2ccc(-c3ccc(C4(C(=O)O)CC4)cc3)cc2)c1CNCc1ccccc1` [Compound 1-29, 1-{4′-[4-(Benzylamino-methyl)-3-methyl-isoxazol-5-yl]-biphenyl-4-yl}-cyclopropanecarboxylic acid], the IC50 was 1000 to 50000 nM.
Consider `Cc1noc(-c2ccc(-c3ccc(C4(C(=O)O)CC4)cc3)cc2)c1CCC(=O)NC1CC1` [Compound 1-39, 1-{4′-[4-(2-Cyclopropylcarbamoyl-ethyl)-3-methyl-isoxazol-5-yl]-biphenyl-4-yl}-cyclopropanecarboxylic acid], for which the IC50 was in the range of 1000 to 50000 nM.
As for `Cc1noc(-c2ccc(-c3ccc(C4(C(=O)O)CC4)cc3)cc2)c1C(CO)NCc1ccccc1` (centres unmarked) [Compound 1-189, 1-{4′-[4-(1-Benzylamino-2-hydroxy-ethyl)-3-methyl-isoxazol-5-yl]-biphenyl-4-yl}-cyclopropanecarboxylic acid], the half-inhibitory concentration (IC50) was less than 300 nM.
`Cc1noc(-c2ccc(-c3ccc(C4(C(=O)O)CC4)cc3)cc2)c1C(O)C(=O)N[C@H](C)c1ccccc1` (stereo partly drawn) [Compound 1-253, 1-(4′-{4-[Hydroxy-((R)-1-phenyl-ethylcarbamoyl)-methyl]-3-methyl-isoxazol-5-yl}-biphenyl-4-yl)-cyclopropanecarboxylic acid]: the IC50 is less than 300 nM.
As for `Cc1noc(-c2ccc(-c3ccc(C4(C(=O)O)CC4)cc3)cc2)c1NC(=O)CC(C)C` [Compound 1-3, 1-{4′-[3-Methyl-4-(3-methyl-butyrylamino)-isoxazol-5-yl]-biphenyl-4-yl}-cyclopropanecarboxylic acid], the figure is 1000 to 50000 nM; as for `Cc1noc(-c2ccc(-c3ccc(C4(C(=O)O)CC4)cc3)cc2)c1NC(C)/C=C/c1ccccc1` (centres unmarked) [Compound 1-288, 1-{4′-[3-Methyl-4-((E)-1-methyl-3-phenyl-allylamino)-isoxazol-5-yl]-biphenyl-4-yl}-cyclopropanecarboxylic acid], less than 300 nM; as for `CCN(Cc1c(C)noc1-c1ccc(-c2ccc(C3(C(=O)O)CC3)cc2)cc1)C[C@H](C)c1ccccc1` [Compound 1-104, 1-[4′-(4-{[Ethyl-((R)-2-phenyl-propyl)-amino]-methyl}-3-methyl-isoxazol-5-yl)-biphenyl-4-yl]-cyclopropanecarboxylic acid], less than 300 nM.
As for `Cc1noc(-c2ccc(-c3ccc([C@@H]4C[C@H]4C(=O)O)cc3)cc2)c1CSCCc1ccccc1` (relative stereo) [Compound 1-130, (trans)-2-[4′-(3-Methyl-4-phenethylsulfanylmethyl-isoxazol-5-yl)-biphenyl-4-yl]-cyclopropanecarboxylic acid], the IC50 fell in the range of 300 to 1000 nM.
With `COc1cccc(SCC(O)c2c(C)noc2-c2ccc(-c3ccc(C4(C(=O)NS(C)(=O)=O)CC4)cc3)cc2)c1` (centres unmarked) [Compound 2-14, N-[1-(4′-{4-[1-Hydroxy-2-(3-methoxy-phenylsulfanyl)-ethyl]-3-methyl-isoxazol-5-yl}-biphenyl-4-yl)-cyclopropanecarbonyl]-methanesulfonamide] the figure was 300 to 1000 nM.
`Cc1noc(-c2ccc(-c3ccc(C4(C(=O)O)CC4)cc3)cc2)c1Cn1cc(Br)cn1` [Compound 1-196, 1-{4′-[4-(4-Bromo-pyrazol-1-ylmethyl)-3-methyl-isoxazol-5-yl]-biphenyl-4-yl}-cyclopropanecarboxylic acid]: the half-inhibitory concentration (IC50) lay in the range of 1000 to 50000 nM.
Regarding `COC(CCCc1ccccc1)c1c(C)noc1-c1ccc(-c2ccc(C3(C(=O)O)CC3)cc2)cc1` (centres unmarked) [Compound 1-148, 1-{4′-[4-(1-Methoxy-4-phenyl-butyl)-3-methyl-isoxazol-5-yl]-biphenyl-4-yl}-cyclopropanecarboxylic acid], the IC50 was less than 300 nM.
With `Cc1noc(-c2ccc(-c3ccc(C4(C(=O)O)CC4)cc3)cc2)c1C(=O)NCCc1ccccc1` [Compound 1-38, 1-[4′-(3-Methyl-4-phenethylcarbamoyl-isoxazol-5-yl)-biphenyl-4-yl]-cyclopropanecarboxylic acid], the concentration for half-maximal inhibition (IC50) lay in the range of 1000 to 50000 nM.
Regarding `Cc1noc(-c2ccc(-c3ccc(C4(C(=O)O)CC4)cc3)cc2)c1C=CCC(C)c1ccccc1` (centres unmarked) [Compound 1-110, 1-{4′-[3-Methyl-4-(4-phenyl-pent-1-enyl)-isoxazol-5-yl]-biphenyl-4-yl}-cyclopropanecarboxylic acid], the IC50 was less than 300 nM.

Values taken from patent US9624182B2, “Compounds as lysophosphatidic acid receptor antagonists” (Amira Pharmaceuticals, Inc., priority 2009, dated 2017).
